In article PMC4757757, “Discovery of cahuitamycins as biofilm inhibitors derived from a convergent biosynthetic pathway” (Nature Communications, 2016):

Tests used:
[1] = reference value used for the calculation; cited from earlier work
Method: (§1) In this method, the Fe–cahuitamycin complex was incubated with varying concentrations of EDTA and assessed for Fe distribution using ultraviolet–visible spectroscopy (Methods). The pFe^III for cahuitamycins were calculated against the known stability constants for EDTA (pFe^III=23.42)[24].

A. baumannii ATCC 17978 = assay: growth of A. baumannii (minimum inhibitory concentration test, OD600 / CFU); type: cell-based, Acinetobacter baumannii
Method: Cultures of A. baumannii ATCC 17978 grown overnight were diluted into fresh 10% Mueller Hinton II broth to get 10^5 colony-forming unit per ml by determining optical density at OD600. A volume of 100 μl of diluted cultures were incubated in individual wells of 96-well plate containing 1% of DMSO and various concentrations of cahuitamycins C (3) and D (4). The plate was incubated at 30 °C with shaking at 150 r.p.m. The optical density of each well was monitored every 1 up to 24 h using a microtiter plate reader (Synergy HT, Bio-Tek, Winooski, VT). The number of viable bacterial cells was determined by counting colony-forming unit.

[2] = test system: A. baumannii ATCC 17978 biofilm; assay: confocal laser scanning microscope 3D imaging of biofilm formation and biomass (SYTO 9 / propidium iodide, COMSTAT); type: cell-based, Acinetobacter baumannii
Method: For visualizing bacterial biofilm formation, the same method as described previously was used for biofilm formation but in a glass-bottom 96-well plate (12–556–38, Fisher Scientific International Inc., Franklin, MA)[65]. […] PBS buffer (100 μl) containing 1 μM of SYTO 9 and 10 μM of propidium iodide was added into the well. The plate was incubated for 15 min in dark. Fluorescent images were acquired with an Olympus Fluoview FV1000 confocal microscope (Olympus, Markham, Ontario) with Melles Griot Laser supply and detectors and filter sets for monitoring SYTO 9 and propidium iodide fluorescence. Images were obtained using an oil immersion × 60 objective lens. 3D images were reconstructed using the Amira software package (Amira, San Diego, CA) from a stack of sectional images of biofilm samples. Biofilm biomass and per cent coverage were calculated based on those images using software COMSTAT[65].

[3] = iron affinity (pFe^III) by competition titration with EDTA, UV-visible spectroscopy; type: binding; settings: 10 mM HEPES, 0.1 M KCl, pH 7.4, 0.1 mM Fe complex, room temperature, at least 24 h, UV-vis, three individual titrations
Method: as §1

[4] = test system: A. baumannii ATCC 17978 biofilm; type: cell-based, Acinetobacter baumannii; settings: static crystal violet assay, OD600
Text: A static biofilm assay was developed from a previously reported method. The biofilm assay measures the adhesion of bacteria to the surface of polystyrene 384-well microtiter plates. Adherent cells are detected by staining with crystal violet and subsequent washing to remove nonadherent planktonic cells. Inhibitors of biofilm formation prevent the bacteria from adhering to the surface of the microtiter plate and reduce the amount of crystal violet retained after washing. Assay quantification was performed by OD600 absorbance measurement of the crystal-violet-stained biofilm. The assay was optimized for plate surface treatment, time, temperature, media, media concentration, crystal violet concentration, wash method, inhibitor sensitivity and culture inoculum preparation.
The A. baumannii test strain (ATCC 17978) was maintained as a frozen stock at −80 °C in 20% glycerol. A volume of 5 ml of Mueller Hinton II cation adjusted media (Becton Dickinson, catalogue no. 212322) was inoculated and grown at 37 °C, 180 r.p.m. shaking for 4–6 h. The culture was then diluted 1:50 and incubated an additional 2 h. The resulting cells were washed four times by centrifugation and resuspension of the pellet in media was performed to remove any metabolites or cell signalling factors. The assay inoculum was prepared by diluting the cells to 0.008 OD600 in 10% Mueller Hinton II cation adjusted media (diluted in 18 Ohm deionized water). The assay plates (Corning, catalogue no. 3,680; 384-well non-treated polystyrene) were prepared by dispensing 20 μl of 10% Mueller Hinton II cation adjusted media into columns 1–22 using a Multidrop Combi dispenser (Thermo Fisher). The NPE samples were added as 0.2 μl of 15 mg ml^−1 stocks in DMSO using a Biomek FX high-density pintool (Beckman Coulter). Column 1 and 2 contained DMSO without NPEs and served as the negative control. The positive control was added to column 23 and 24 as 20 μl of 40 μM Baicalein (Sigma-Aldrich, catalogue no. 11712). […] Quantification was performed by measuring the OD600 absorbance using a Pherastar plate reader (BMG).

[5] = test system: A. baumannii ATCC 17978 biofilm; assay: flow cell biofilm assay (micrographs); type: cell-based, Acinetobacter baumannii; settings: for biofilm in flow cells after 6 h of supplementation (in words) / biofilm in flow cells after 24 h of supplementation (in words): 7.5 μg/ml in 10% MHII broth, flow rate 4 ml/h, room temperature
Method: Next, we sought to probe the specific stage and extent of inhibition during biofilm formation employing a secondary flow cell assay (Supplementary Fig. 44; Methods).
Biofilms were formed by A. baumannii ATCC 17978 in flow chambers at room temperature. Images were taken at 1, 6 and 24 h (using a × 60 lens) after inoculation. A flow cell biofilm was achieved by using a flow cell chamber (ACCFL0001, Life Science Incorporated, Greensboro, NC). Briefly, overnight cultures of A. baumannii ATCC 17978 grown in MHII broth at 37 °C were diluted 100-fold with fresh MHII broth. A volume of 1 ml of dilution was injected into a flow cell chamber and allowed to settle 1 h for attachment of bacteria, followed by initiation media flow at a flow rate of 4 ml^−1 h^−1. Flow media was 10% MHII broth (control), 10% MHII broth with 7.5 μg ml^−1 of desferoxamine or 10% MHII broth with […] of cahuitamycin A. Micrographs of the biofilm were acquired at 1, 6 and 24 h after the start of flow media using an Olympus IX70 microscope with a × 60 lens. Flow was still running while acquiring the micrograph.

[6] = treated at 240 nM, 22 h incubation, confocal x60, average of five replicates

Row | Compound | effect on bacterial growth (in words) (A. baumannii ATCC 17978) | total biomass of biofilm ([2]; glass plate treated at 240 nM) | Average thickness of biofilm [2, 6] [μm] | Maximum thickness of biofilm [2, 6] [μm] | Roughness coefficient of biofilm [2, 6] | total biomass of biofilm [2, 6] [μm^3 μm^−2] | pFe^III [3] | biofilm in flow cells after 6 h of supplementation (in words) [5] | biofilm in flow cells after 24 h of supplementation (in words) [5] | effect on biofilm formation (in words) [4] | also measured
1 | O=C(O)CN(CCN(CC(=O)O)CC(=O)O)CC(=O)O [EDTA] | – | – | – | – | – | – | – | – | – | – | pFe^III (known stability constant) [1]: 23.42
2 | Cc1cccc(O)c1C1=N[C@H](C(=O)N[C@@H](CO)C(=O)N[C@H](CCCN(O)C=O)C(=O)N2NCCC[C@@H]2C(=O)NCCC(=O)O)CO1 [compound 3, Cahuitamycin C] | limited effect | 0.10 | 0.20±0.05 | 1.5±0.33 | 1.99±0.20 | 0.10±0.03 | 17.52±0.12 | – | – | – | –
3 | Cc1ccc(O)c(C2=N[C@H](C(=O)N[C@@H](CO)C(=O)N[C@H](CCCN(O)C=O)C(=O)N[C@H](CCCNO)C(=O)NCCC(=O)O)CO2)c1 [compound 5, Cahuitamycin E] | – | – | – | – | – | – | – | – | – | – | IC50 ([4]; 10% Mueller Hinton II, 30 °C, 20 h, average of three replicates, read-out: IC50, inhibition of biofilm formation): 10.5 µM
4 | CC(=O)N(O)CCCCCNC(=O)CCC(=O)N(O)CCCCCNC(=O)CCC(=O)N(O)CCCCCN [desferrioxamine] | – | – | – | – | – | – | – | formation of a robust biofilm | biofilm became thicker | – | anti-biofilm activity of siderophore control (in words) ([5]; control to probe iron chelation as mode of action, Supplementary Figs 38 and 44): no activity
5 | Cahuitamycin A [compound 1] | – | 0.18 | 0.21±0.07 | 1.5±0.54 | 1.99±0.18 | 0.18±0.05 | 18.34±0.16 | only a few microcolonies | larger microcolonies and initiation of biofilm formation | able to inhibit | –
6 | Cahuitamycin B [compound 2] | no effects | – | – | – | – | – | 20.42±0.09 | – | – | no effects | –
